One series concerns liver. Briefly: Hepatotoxicity of chronic administration, liver hematoxylin-eosin staining. The class given is in vivo. Particulars: mouse, data not shown. Here is the method:
As VCE-003.2 was previously shown to exert a neuroprotective action in preclinical HD models, and considering its pro-neurogenic profile, we evaluated the pathophysiological impact and potential therapeutic value of VCE-003.2 after oral administration. Pharmacokinetic analyses were performed in rats after oral administration of VCE-003.2 (50 mg/kg) dissolved in sesame oil. Plasma VCE-003.2 levels peaked at 8 h (Tmax) and then slowly declined to basal levels. […] We also investigated some critical ADME/Tox parameters. […] We also determined the potential hepatotoxicity of chronic VCE-003.2 administration by hematoxylin-eosin staining. […] We also determined the impact of VCE-003.2 administration on peripheral biomarkers by quantifying the levels of cytokines and other soluble mediators.

Series [1] relates to 3-NP model of striatal neurodegeneration. Briefly: 3-Nitropropionic acid (3-NP) model of striatal neurodegeneration. The class given is in vivo, C57BL/6 N male mice. Particulars: 10 mg/kg oral gavage every 24 h, sesame oil. Here is the method: Supplementary file 40035_2019_148_MOESM6_ESM.pdf: Additional file 6: 3-Nitroproprionic acid model of striatal neurodegeneration. 16-week- old C57BL/6 N male mice (Harlan Ibérica, Barcelona, Spain) were subjected to seven intraperitoneal (i.p.) injections of 50 mg/kg 3-NP (one injection each every 12 h prepared in phosphate-buffered saline (PBS)]. 3-NP-treated animals and their respective non-lesioned controls (injected with PBS) were used for pharmacological studies with VCE-003.2. Treatments consisted of oral gavage every 24 h with VCE-003.2 at a dose of 10 mg/kg using sesame oil as vehicle. 12 h after the last injection of 3-NP motor activity, hindlimb clasping and kyphosis were evaluated as previously described. Animals were euthanized at the indicated time after huntingtin-AAV infection or 12 h after the last injection of 3NP and their brains removed. Statistical analysis: One-way ANOVA followed by the Tuckey’s post hoc test was used to determine the statistical significance. All the in vivo data were expressed as mean ± SEM. […]

Consider 1 compound from article PMC6407204, “Oral administration of the cannabigerol derivative VCE-003.2 promotes subventricular zone neurogenesis and protects against mutant huntingtin-induced neurodegeneration” (Translational Neurodegeneration, 2019).

As for `CCCCCC1=C(NCC)C(=O)C(CC=C(C)CCC=C(C)C)=C(O)C1=O` [VCE-003.2, 2-(3,7-dimethyl-octa-2,6-dienyl)-6-ethylamino-3-hydroxy-5-pentyl-(1,4) benzoquinone], the “hepatotoxicity, liver histology” value in the series with liver is reported as “did not show any evidence of fibrosis, steatosis, vacuolization, ballooning or inflammation”. The “neuroprotection and anti-inflammatory effect in 3-NP model” value in series [1] is “neuroprotective and anti-inflammatory”.
